Measurements from patent US4456604A, “1-(3-Halo-2-pyridinyl) piperazine” (Merck & Co., Inc., priority 1982, dated 1984).
Read-outs that look alike come from different tables or passages of the source.

Tests used:
α2-adrenergic receptor [1] = molecular target: T1, α2-adrenergic receptor (Bos taurus, UniProt Q28838); experiment: α2-adrenergic receptor binding ([3H] clonidine binding site, calf cerebral cortex); conditions: for affinity for the α2-adrenergic receptors (in words): of the compounds tested, with the exception of compound 5
T1 construct: from tissue; host or cells: calf cerebral cortex
T1 sequence (Q28838 1-468): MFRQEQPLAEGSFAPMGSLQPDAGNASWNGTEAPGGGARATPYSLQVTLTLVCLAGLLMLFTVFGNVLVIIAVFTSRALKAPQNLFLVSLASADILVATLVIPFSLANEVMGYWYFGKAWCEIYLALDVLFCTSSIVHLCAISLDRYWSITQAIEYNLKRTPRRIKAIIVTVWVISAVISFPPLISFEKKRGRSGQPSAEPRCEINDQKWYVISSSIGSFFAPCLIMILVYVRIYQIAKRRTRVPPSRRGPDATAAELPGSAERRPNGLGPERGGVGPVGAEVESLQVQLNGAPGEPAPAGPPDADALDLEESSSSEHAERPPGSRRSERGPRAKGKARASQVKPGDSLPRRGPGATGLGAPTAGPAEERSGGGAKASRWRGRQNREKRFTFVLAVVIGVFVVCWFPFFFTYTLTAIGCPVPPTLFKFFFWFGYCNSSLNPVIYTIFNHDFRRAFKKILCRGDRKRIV
Experimental: (§1) The α1 - and α2 -adrenergic receptor binding was determined for 1-(3-halo-2-pyridinyl)piperazines and a number of other structurally related compounds shown in Table I.
(§2) Binding to the α2 -adrenergic receptor was determined by the method of Lyon and Randall, Life Sciences, 26, 1121 (1980) and also is expressed in Table I as Ki representing the affinity of each compound for the [^3 H] clonidine binding site in calf cerebral cortex.

α1-adrenergic receptor = α1-adrenergic receptor binding ([3H] prazosin binding site, calf cerebral cortex); conditions: for Ki: [3H] prazosin binding site, calf cerebral cortex; for affinity for the α1-adrenergic receptors (in words): of the compounds tested
Experimental: as §1
Extent of binding to the α1 -adrenergic receptor was determined by the method of Greengrass and Bremner, Eur. J. Pharmacol., 55, 323 (1979) and is expressed in Table I as Ki, representing the affinity of each compound for the [^3 H] prazosin binding site in calf cerebral cortex.

α2-adrenergic receptor [2] = experiment: α2-adrenergic receptor binding ([3H] clonidine binding site, calf cerebral cortex); conditions: compared to any of the other tested compounds
Experimental: as §1, §2

[3] = system: sedation produced by clonidine; conditions: Drew et al. 1979; cited from earlier work
[4] = system: locomotor depressant effects of methyldopa; conditions: rats; Clineschmidt et al. 1980; cited from earlier work
[5] = system: clonidine-induced sedation; conditions: man; Autret et al. 1977; cited from earlier work
norepinephrine reuptake = conditions: cited from earlier work
α2-adrenergic receptors = conditions: cited from earlier work
[6] = system: α1- or α2-adrenergic receptors; conditions: Clineschmidt et al. 1979; cited from earlier work
depression = conditions: in vivo; cited from earlier work
[7] = [3H] clonidine binding site, calf cerebral cortex, read-out: Adrenergic Binding Ki α2

CN1CCN(c2ncccc2Br)CC1 [Compound 5]
Ki (α2-adrenergic receptor [1]; [7]): 2.9 nM | Ki (α1-adrenergic receptor): 160 nM

Clc1cccnc1N1CCNCC1 [Compound 2, 1-(3-chloro-2-pyridinyl)piperazine]
Ki (α2-adrenergic receptor [1]; [7]): 7.9 nM | affinity for the α2-adrenergic receptors (in words) (α2-adrenergic receptor [1]): strongest affinity (lowest Ki) | selectivity or ratio of Kiα1/Kiα2 (in words) (α2-adrenergic receptor [2]): greatest selectivity | Ki (α1-adrenergic receptor): 1800 nM | affinity for the α1-adrenergic receptors (in words) (α1-adrenergic receptor): weakest affinity (highest Ki)

COC(=O)[C@@H]1[C@H]2C[C@H]3c4[nH]c5ccccc5c4CCN3C[C@@H]2CC[C@@H]1O [yohimbine]
effect on sedation produced by clonidine [3]: antagonizes the sedation produced by clonidine | effect on locomotor depressant effects of methyldopa [4]: antagonizes | effect on clonidine-induced sedation [5]: reduce clonidine-induced sedation in man

CN1CCN2c3ccccc3Cc3ccccc3C2C1 (centres unmarked) [Mianserin]
in vivo norepinephrine reuptake inhibiting properties (norepinephrine reuptake): minimal in vivo norepinephrine reuptake inhibiting properties | α2-adrenergic receptor blockade (α2-adrenergic receptors): blocks α2 -adrenergic receptors | selectivity for α1- or α2-adrenergic receptors [6]: fails to exhibit any important selectivity for α1 - or α2 -adrenergic receptors | clinical antidepressant effectiveness (depression): clinically effective antidepressant

Clc1nccnc1N1CCNCC1 [Compound 10]
Ki (α2-adrenergic receptor [1]; [7]): 160 nM | Ki (α1-adrenergic receptor): 26000 nM

c1ccc(N2CCNCC2)nc1 [Compound 7]
Ki (α2-adrenergic receptor [1]; [7]): 37 nM | Ki (α1-adrenergic receptor): 2400 nM

Clc1cccc(N2CCNCC2)n1 [Compound 6]
Ki (α2-adrenergic receptor [1]; [7]): 18 nM | Ki (α1-adrenergic receptor): 500 nM

Clc1cncc(N2CCNCC2)n1 [Compound 9]
Ki (α2-adrenergic receptor [1]): 127 nM | Ki (α1-adrenergic receptor): 2400 nM

Clc1ccc(N2CCNCC2)nc1 [Compound 8]
Ki (α2-adrenergic receptor [1]): 1000 nM

Fc1cccnc1N1CCNCC1 [Compound 1, 1-(3-fluoro-2-pyridinyl)piperazine]
Ki (α2-adrenergic receptor [1]): 8.3 nM | affinity for the α2-adrenergic receptors (in words) (α2-adrenergic receptor [1]): strongest affinity (lowest Ki) | selectivity or ratio of Kiα1/Kiα2 (in words) (α2-adrenergic receptor [2]): greatest selectivity | Ki (α1-adrenergic receptor): 2300 nM | affinity for the α1-adrenergic receptors (in words) (α1-adrenergic receptor): weakest affinity (highest Ki)

Brc1cccnc1N1CCNCC1 [Compound 3, 1-(3-bromo-2-pyridinyl)piperazine]
Ki (α2-adrenergic receptor [1]; [7]): 11 nM | affinity for the α2-adrenergic receptors (in words) (α2-adrenergic receptor [1]): strongest affinity (lowest Ki) | selectivity or ratio of Kiα1/Kiα2 (in words) (α2-adrenergic receptor [2]): greatest selectivity | Ki (α1-adrenergic receptor): 1480 nM | affinity for the α1-adrenergic receptors (in words) (α1-adrenergic receptor): weakest affinity (highest Ki)

Ic1cccnc1N1CCNCC1 [Compound 4]
Ki (α2-adrenergic receptor [1]; [7]): 42 nM | Ki (α1-adrenergic receptor): 1600 nM
